Patent US6509344B1, “Indenoisoquinolines as antineoplastic agents” (The United States of America as represented by the …, priority 1998, dated 2003)
Where two headings read alike, the source gives them in different places.

What was measured:
UACC-62 = experiment: NCI human cancer cell line screen (COMPARE screening), Melanoma UACC-62; format: cell-based
From the text: (§1) Considering the diversity of cancer in terms of cell type, morphology, growth rate and other cellular characteristics, the U.S. National Cancer Institute (NCI) has developed a “disease-oriented” approach to anticancer activity screening (M. R. Boyd, in “Principle of Practice of Oncology” […]. Rosenberg (Eds.) Vol. 3, PPO Update, No. 10, 1989). This in vitro prescreening system is based on the measurement of anticancer cytotoxicity against human cancer cell line panels consisting of approximately 60 cell lines of major human cancers (including leukemia and slower growing tumor cells such as lung, colon, breast, skin, kidney, etc.) and is referred hereinafter as “COMPARE” screening. An important advantage of the new in vitro screening panels is the opportunity to facilitate identification of compounds that are selectively more cytotoxic to cells of certain types of cancers, thus increasing the ability to select compounds for further study with respect to specific diseases. The indenoisoquinolines were examined for antiproliferative activity against the human cancer cell lines in the National Cancer Institute screen (COMPARE screening), in which the activity of each compound was evaluated with approximately […] different cancer cell lines of diverse tumor origins.

topoisomerase I = target: T1, topoisomerase I (Homo sapiens, UniProt P11387); experiment: Topoisomerase I-mediated DNA cleavage assay (3'-end-labeled 161 bp pBluescript SK(-) fragment); format: biochemical; conditions: relative to the activity of 1 μM camptothecin
T1 sequence (P11387 1-765): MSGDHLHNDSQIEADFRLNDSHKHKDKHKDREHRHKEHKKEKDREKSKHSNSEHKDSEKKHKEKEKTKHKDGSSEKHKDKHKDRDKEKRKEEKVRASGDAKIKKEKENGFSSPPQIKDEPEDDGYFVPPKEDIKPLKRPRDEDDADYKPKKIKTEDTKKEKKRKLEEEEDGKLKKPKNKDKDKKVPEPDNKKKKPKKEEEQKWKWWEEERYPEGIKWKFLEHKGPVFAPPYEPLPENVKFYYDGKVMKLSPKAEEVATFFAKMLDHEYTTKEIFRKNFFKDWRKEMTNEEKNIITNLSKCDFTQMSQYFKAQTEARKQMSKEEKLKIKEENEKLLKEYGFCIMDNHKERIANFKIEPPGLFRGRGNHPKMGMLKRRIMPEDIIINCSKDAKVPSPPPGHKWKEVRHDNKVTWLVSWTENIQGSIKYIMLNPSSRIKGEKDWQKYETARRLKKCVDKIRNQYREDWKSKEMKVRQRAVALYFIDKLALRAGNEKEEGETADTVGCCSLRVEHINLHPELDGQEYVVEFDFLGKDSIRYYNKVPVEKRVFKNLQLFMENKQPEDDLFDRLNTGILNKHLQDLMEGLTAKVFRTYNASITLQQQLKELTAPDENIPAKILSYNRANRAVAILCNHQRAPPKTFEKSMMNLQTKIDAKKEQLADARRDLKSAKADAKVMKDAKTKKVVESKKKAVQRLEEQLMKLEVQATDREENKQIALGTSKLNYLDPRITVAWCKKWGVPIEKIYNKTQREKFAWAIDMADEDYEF
Experimental: Topoisomerase I-Mediated DNA Cleavage Reactions Using 3′-End-labeled 161 BP Plasmid DNA
The 161 bp fragment from pBluescript SK(−) phagemid DNA (Stratagene, La Jolla, Calif.) was cleaved with the restriction endonuclease Pvu II and Hind III (New England Biolabs, Beverly, Mass.) in supplied NE buffer 2 (10 μL reactions) for 1 h at 37° C., separated by electrophoresis in a 1% agarose gel made in 1×TBE buffer. The 161 bp fragment was eluted from the gel slice (centrilutor by Amicon) and concentrated in a centricon 50 centrifugal concentrator (Amicon, Beverly, Mass.). Approximately 200 ng of the fragment was 3′-end-labeled at the Hind III site by fill-in reaction with [alpha-^32P]-dCTP and 0.5 mM dATP, dGTP, and dTTP, in React 2 buffer (50 mM Tris-HCl, pH 8.0, […], 50 mM NaCl) with 0.5 units of DNA polymerase I (Klenow fragment). Labeling reactions were followed by phenol-chloroform extraction and ethanol precipitation. The resulting 161 bp 3′-endlabeled DNA fragment was resuspended in water. Aliquots (approximately 50,000 dpm/reaction) were incubated with topoisomerase I at 30° C. for 15 min in the presence of the indicated drug. Reactions were terminated by adding 0.5% SDS. After ethanol precipitation, the samples were resuspended in loading buffer (80% formamide, 10 mM sodium hydroxide, 1 mM sodium EDTA, 0.1% xylene cyanol, and 0.1% bromophenol blue, pH 8.0), and separated in a denaturing gel (16% polyacrylamide, 7 M urea) run at 51° C. The gel was dried and visualized by using a Phosphoimager and ImageQuant software (Molecular Dynamics, Sunnyvale, Calif.).

HCT-116 = experiment: NCI human cancer cell line screen (COMPARE screening), Colon HCT-116; format: cell-based
From the text: as §1

human topoisomerase II = experiment: Topoisomerase II-mediated DNA cleavage assay (5'-end-labeled human c-myc DNA); format: biochemical
MDA-MB-435 = experiment: NCI human cancer cell line screen (COMPARE screening), Breast MDA-MB-435; format: cell-based
From the text: as §1

[1] = tested on: approximately 55 different cancer cell lines of diverse tumor origins; experiment: NCI screen mean graph midpoint over all cell lines tested; format: cell-based, human; conditions: for IC50: average GI50 for all cell lines tested (approximately 55), values outside test range taken as 10^-8 or 10^-4 molar, read-out: MGM (mean graph midpoint)
From the text: as §1

DU-145 = experiment: NCI human cancer cell line screen (COMPARE screening), Prostate DU-145; format: cell-based
From the text: as §1

HOP-62 = experiment: NCI human cancer cell line screen (COMPARE screening), Lung HOP-62; format: cell-based
From the text: as §1

OVCAR-3 = experiment: NCI human cancer cell line screen (COMPARE screening), Ovarian OVCAR-3; format: cell-based
From the text: as §1

SN12C = experiment: NCI human cancer cell line screen (COMPARE screening), Renal SN12C; format: cell-based
From the text: as §1

SF-539 = experiment: NCI human cancer cell line screen (COMPARE screening), CNS SF-539; format: cell-based
From the text: as §1

[2] = Homo sapiens, SN12C, concentration causing 50% growth inhibition, read-out: Cytotoxicity (G150 in μM) Renal SN12C
[3] = Homo sapiens, HCT-116, concentration causing 50% growth inhibition, read-out: Cytotoxicity (G150 in μM) Colon HCT-116
[4] = Homo sapiens, MDA-MB-435, concentration causing 50% growth inhibition, read-out: Cytotoxicity (G150 in μM) Breast MDA-MB-435
[5] = Homo sapiens, DU-145, concentration causing 50% growth inhibition, read-out: Cytotoxicity (G150 in μM) Prostate DU-145
[6] = Homo sapiens, SF-539, concentration causing 50% growth inhibition, read-out: Cytotoxicity (G150 in μM) CNS SF-539
[7] = Homo sapiens, HOP-62, concentration causing 50% growth inhibition, read-out: Cytotoxicity (G150 in μM) Lung HOP-62
[8] = Homo sapiens, OVCAR-3, concentration causing 50% growth inhibition, read-out: Cytotoxicity (G150 in μM) Ovarian OVCAR-3
[9] = Homo sapiens, UACC-62, concentration causing 50% growth inhibition, read-out: Cytotoxicity (G150 in μM) Melanoma UACC-62

| IC50 (UACC-62) [µM] | Top 1 Cleavage (topoisomerase I) | IC50 (HCT-116) [µM] | IC50 (MDA-MB-435) [µM] | IC50 (DU-145) [µM] | IC50 (HOP-62) [µM] | IC50 (OVCAR-3) [µM] | Structure (SMILES) | IC50 [1] [µM] | IC50 (SN12C; [2]) [µM] | IC50 (HCT-116; [3]) [µM] | IC50 (MDA-MB-435; [4]) [µM] | IC50 ([1]; Homo sapiens) [µM] | IC50 (DU-145; [5]) [µM] | IC50 (SF-539; [6]) [µM] | IC50 (HOP-62; [7]) [µM] | IC50 (OVCAR-3; [8]) [µM] | IC50 (UACC-62; [9]) [µM] | further results |
| --- | --- | --- | --- | --- | --- | --- | --- | --- | --- | --- | --- | --- | --- | --- | --- | --- | --- | --- |
| 0.38 | 0 | 0.34 | 1.4 | 0.77 | 0.36 | 1.7 | C=CCN1C(=O)c2cc(OC)c(OC)cc2[C@H]2C(=O)c3cc4c(cc3[C@H]21)OCO4 (relative stereo) [Compound 22, cis-6-Allyl-5,6,12,13-tetrahydro-2,3-dimethoxy-5,11-dioxo-8,9-(methylenedioxy)-(11H)indeno[1,2-c]isoquinoline] | 0.98 |  |  |  |  |  |  |  |  |  | induction of topoisomerase II cleavage complexes (human topoisomerase II): no effect; cytotoxicity (MGM) relative to lead compound 1 [1]: lower MGM than the lead compound 1 |
|  | 0 |  |  |  |  |  | O=C1c2ccccc2-c2oc(=O)c3ccccc3c21 [Compound 2, benz[d]indeno[1,2-b]pyran-5,11-dione] |  | > 100 | > 100 | > 100 | 85 | > 100 | > 100 | > 100 | > 100 | > 100 |  |
|  | 0 |  |  |  |  |  | O=C1c2ccccc2-c2c1c1ccccc1c(=O)n2C1CC1 [Compound 5, 6-Cyclopropyl-5,6-dihydro-5,11-diketo-11H-indeno[1,2-c]isoquinoline] |  | > 100 | > 100 | > 100 | 98 | > 100 | > 100 | 61 | > 100 | 84 |  |
|  | 0 |  |  |  |  |  | COc1ccc(Cn2c3c(c4cc(OC)c(OC)cc4c2=O)C(=O)c2cc4c(cc2-3)OCO4)cc1 [Compound 13f, 6-(p-Anisyl)-2,3-dimethoxy-5,6-dihydro-5,11-diketo-8,9-methylenedioxy-11H-indeno[1,2-c]isoquinoline] |  | > 100 | > 100 | > 100 | 70 | 76 | > 100 | 20 | > 100 | > 100 |  |
|  | 0 |  |  |  |  |  | COC(=O)Cn1c2c(c3ccccc3c1=O)C(=O)c1ccccc1-2 [Compound 6, 5,6-Dihydro-5,11-diketo-6-(methoxycarbonylmethyl)-11H-indeno[1,2-c]isoquinoline] |  | > 100 |  | > 100 | 81 | > 100 | > 100 |  | > 100 | > 100 |  |
|  | 0 |  |  |  |  |  | COc1cc2c3c(n(C)c(=O)c2cc1OC)-c1cc(OCc2ccccc2)c(OCc2ccccc2)cc1C3=O [Compound 13h, 8,9-Dibenzyloxy-5,6-dihydro-5,11-diketo-6-methyl-2,3-dimethoxy-11H-indeno[1,2-c]isoquinoline] |  | > 100 | 80 | > 100 | 72 | > 100 | 39 | 46 | 58 | > 100 |  |
| 55 | 0 | > 100 | > 100 | > 100 | > 100 | > 100 | COc1cc2c3c(n(C)c(=O)c2cc1OC)-c1cc(OC)c(OC)c(OC)c1C3=O [Compound 13i, 5,6-Dihydro-5,11-diketo-6methyl-2,3,8,9,10-pentamethoxy-11H-indeno[1,c]isoquinoline] | 95 |  |  |  |  |  |  |  |  |  | IC50 (SN12C): > 100 µM; IC50 (SF-539): > 100 µM |
|  | 0 |  |  |  |  |  | Cn1c2c(c3ccccc3c1=O)C(=O)c1cc(OCc3ccccc3)c(OCc3ccccc3)cc1-2 [Compound 13g, 8,9-Dibenzyloxy-5,6-dihydro-5,11-diketo-6-methyl-11H-indeno[1,2-c]isoquinoline] |  | 88 | > 100 | > 100 | 82 | > 100 | > 100 | 72 | > 100 | 93 |  |

| Structure (SMILES) | IC50 (UACC-62) [µM] | Top 1 Cleavage (topoisomerase I) | IC50 (HCT-116) [µM] | IC50 (MDA-MB-435) [µM] | IC50 (DU-145) [µM] | IC50 (HOP-62) [µM] | IC50 (OVCAR-3) [µM] | IC50 [1] [µM] | IC50 (SN12C; [2]) [µM] | IC50 (HCT-116; [3]) [µM] | IC50 (MDA-MB-435; [4]) [µM] | IC50 ([1]; Homo sapiens) [µM] | IC50 (DU-145; [5]) [µM] | IC50 (SF-539; [6]) [µM] | IC50 (HOP-62; [7]) [µM] | IC50 (OVCAR-3; [8]) [µM] | IC50 (UACC-62; [9]) [µM] | further results |
| --- | --- | --- | --- | --- | --- | --- | --- | --- | --- | --- | --- | --- | --- | --- | --- | --- | --- | --- |
| CC[n+]1cc2cc(OC)c(OC)cc2c2c1-c1cc3c(cc1C2)OCO3 [Compound 27, 6-Ethyl-2,3-dimethoxy-8,9-(methylenedioxy)-11H-indeno[1,2-c]isoquinolinium Chloride] |  | ++ (those compounds having greater than 50% of the activity of 1 μM camptothecin) |  |  |  |  |  |  | 2.7 | 13 | 14 | 13 | 58 | 5.6 | 22 | 1.9 |  | cytotoxicity (MGM) relative to lead compound 1 ([1]; comparison in words): lower MGM than the lead compound 1 |
| O=C1c2ccccc2-c2c1c1ccccc1c(=O)n2CCCCCO [Compound 8, 5,6-Dihydroxy-6-(5-hydroxy-1-pentyl)-5,11-diketo-11H-indeno[1,2-c]isoquinoline] | 14.3 | + (those compounds having between 20% and 50% of the activity of 1 μM camptothecin) | 3.9 | 41 | 3.4 | 4.4 | 93 | 14 |  |  |  |  |  |  |  |  |  | induction of topoisomerase II cleavage complexes (human topoisomerase II): weak topoisomerase II activity; cytotoxicity (MGM) relative to lead compound 1 [1]: lower MGM than the lead compound 1 |
